From US5998437A, “Benzimidazole derivatives” (Otsuka Pharmaceutical Co., Ltd., priority 1995, dated 1999)

Legend:
human fibroblast = test: Activity for inhibiting proliferation of the human fibroblast ([3H]-thymidine uptake); type: cell-based
Method: (§1) Test was conducted by the modified method of N. Morisaki [Atherosclerosis, Vol. 71, (1988), pp. 165-171]. The rat A10 cells (purchased from Dainippon Pharmaceutical Co., Ltd.) were inoculated on a 24 wells immunoplate at a density of 10,000 cells/well, and were cultured in 10% FBS (fetal bovine serum) for 2 days, and in order to introduce the cells into the resting stage, the cells were further cultured in a serum-free medium for 2 days. After that, 1% FBS was added thereto for stimulating the proliferation, of the cells and at the same time, a test compound and 0.5 μCi/well of [^3 H]-thymidine were added. As to the index of synthesized amount of DNA, the quantity of [^3 H]-thymidine being uptaken by the cells was measured at the time of 24 hours after the final cultivation was started.
(3) Measurement of the Activity for Inhibiting Proliferation of the Human Fibroblast
Similar to the activity for inhibiting proliferation of rat A10 cells as mentioned above, the activity for inhibiting proliferation of the human fibroblast (purchased from Dainippon Pharmaceutical Co., Ltd.) was determined by measuring the uptake amount of [^3 H]-thymidine.

TPA induced inflammation = test: Activity for inhibiting TPA induced inflammation (ear pinna); type: in vivo, ICR strain female mouse; settings: 1% solution, 20 μl on ear pinna 30 minutes before TPA; 4 hours after TPA coating
Method: (6) Determination of the Activity for Inhibiting TPA Induced Inflammation
Test was conducted by the modified method of Carlson, et al. [Agents Actions, Vol. 26, (1989), page 319]. Thus, to the ear pinna of ICR strain female mouse, 20 μl of acetone solution of 12-O-tetradecanoylphorbol-13-acetate (TPA) in the concentration of 200 μg/ml was coated to induce inflammation. The thickness of ear pinna of 4 hours after the TPA coating was measured, and difference of the last value was defined as the ear pinna inflammation. Test compound was dissolved in acetone-methanol (4:1 by v/v) to make the concentration of 1%. 20 μl of test compound solution was coated on the ear pinna 30 minutes before the TPA coating. By using compound of Example 3 as test compound, the inflammation was inhibited at the rate of 66%.

rat A10 cells = test: Activity for inhibiting proliferation of rat A10 cells ([3H]-thymidine uptake); type: cell-based; settings: A10, 1% FBS stimulation, 24 hours, read-out: Activity for inhibiting proliferation of rat A10 cells [IC50 (μM)]
Method: (2) Measurement of the Activity for Inhibiting Proliferation of Rat A10 Cells
as §1

## O=C(Nc1ccc2c(ccn2CCCn2ccnc2)c1)c1nc2ccc(Cl)cc2n1Cc1ccccc1 [Example 3, 1-benzyl-6-chloro-2-{1-[3-(imidazol-1-yl)propyl]indol-5-ylamino-carbonyl}benzimidazole]
Human fibroblast
  IC50: 40 nM
TPA induced inflammation
  Inhibition rate of TPA induced inflammation: 66%
Rat A10 cells
  IC50: 0.5 µM
